8 molecules from patent publication US20060281670A1, “Compositions and methods for modulating angiogenesis” (Wisconsin Alumni Research Foundation (WARF), priority 2005, published 2006) can be followed below.

For assay [1], the system named is HUVECs. As to the kind of experiment: Vascular network assembly assay on Matrigel. The format is cell-based, human.
Experimental: (§1) Vascular network assembly was assessed by measuring the formation of capillary-like structures by endothelial cells on Matrigel (BD Biosciences, San Jose, Calif.). Matrigel was diluted 1:1 with supplement-free M200 medium, poured in 24-well plates, and allowed to solidify at 37° C. Subconfluent endothelial cells were harvested and preincubated under different experimental conditions (YSECs, 1 h; HUVECs, HAECs, and human microvascular endothelial cells (HMVECs), 2 h in supplement-free M200 medium in microfuge tubes. An equal volume of supplemented medium containing the indicated reagents was added. Cells were plated on Matrigel (1.5×10^5 cells/well) and incubated at 37° C. Vascular network assembly was measured as a function of time, and digital pictures were captured.
For assay [2], the system named is human aortic endothelial cells (HAECs). As to the kind of experiment: Vascular network assembly assay on Matrigel. The format is cell-based. The following applies: NK-B, U46619 (2 μM) or both, 2 h, 16 h on Matrigel.
Experimental: as §1
In assay [3] the test system is YSECs. As to the kind of experiment: cAMP assay. The following applies: supplement-free M200 medium. The format is cell-based, mouse. As to the method: Cells were cultured in 6-well plates (2×10^5 cells/well), washed with supplement-free M200 medium and treated with indicated reagents at 37° C. The reactions were terminated by aspiration of the medium. Cells were washed with PBS and lysed in 500 μl of 0.1 N HCl containing 0.5% Triton X-100. cAMP was assayed in cell lysates (100 μl) using a direct cAMP enzyme-linked immunosorbent assay (Assay Designs, Inc., Ann Arbor, Mich.).
(In general: cAMP levels reflect the balance of adenylyl cyclase and phosphodiesterase activity.)

Assay [4] concerns YSECs. As to the kind of experiment: Calcium imaging (Ca+2 oscillations). Format: cell-based, mouse. The following applies: YSECs on Matrigel, supplemented medium. As to the method:
Cells were incubated for ˜30 min in 4 μM fluo-4/AM (Molecular Probes, Carlsbad, Calif.) in supplement-free M200 medium at 37° C., trypsinized, plated on Matrigel with indicated reagents, and allowed to adhere for 10 min. Time-lapse video microscopy with an Olympus AX70 laser scanning confocal microscope was used to measure intracellular Ca^+2 as described previously (Robles et al., 2003). An argon laser at 488 nm was used to excite Fluo-4, and the emitted light was detected at wavelengths>510 nm. Images were acquired at 15 s intervals and analyzed using Image J (Image Processing and Analysis in JAVA, Nat'l Inst. Health). When indicated, the fluorescence intensity in the region of interest (F) was normalized by dividing the Ca+2 signal by the fluorescence intensity of the resting cell at time 0 (F0).

The test system of assay [5] is Yolk sac endothelial cells (YSECs). Particulars: for rescue of tube formation in IBMX+NK-B treated cells: 100 ng/ml mouse VEGF164 or 30 ng/ml mouse bFGF.
Experimental: as §1
For assay [6], the system named is chorioallantoic membrane (CAM). As to the kind of experiment: Chick chorioallantoic membrane assay. Format: in vivo, chicken. Particulars: L733060 5 μM, SB222200 2 μM, alone or combined; day 7 embryos, 48 h. As for the experimental part: Fertilized chicken eggs were incubated at 39° C. with 90% humidity. On embryonic day 7, a small hole was drilled at the end of the egg that contains the air sac to lower the embryo. A second hole was made above the chorioallantoic membrane (CAM), and 100 μl of a 1.5% solution of methylcellulose (Stem Cell Technologies, Vancouver, BC) containing either FGF2 (500 ng) or VEGF (200 ng) and vehicle, IBMX (100 μg), NK-B (40 μg)/IBMX, or mutant NK-B (40 μg)/IBMX were applied to the CAM. A solution of penicillin/streptomycin was added, and the eggs were sealed with transparent tape. Vasculature was analyzed after 48 h, and digital images were captured at 40× magnification.

Assay [7] deals with Flt-1 and Flk-1 (VEGF receptors) in YSECs. As to the kind of experiment: Gene expression analysis by real-time RT-PCR. The format is cell-based, mouse. Particulars: for rescue of Flt-1 and Flk-1 expression and cell signaling: NK-B/IBMX-treated YSECs, growth factor 100 ng/ml. As to the method:
Real-time RT-PCR was conducted Total RNA was purified with Trizol (Invitrogen). cDNA was prepared by annealing RNA (1 μg) with 250 ng of a 1:5 mixture of random and oligo(dT) primers (Promega) at 68° C. for 10 min, followed by incubation with Moloney Murine Leukemia Virus reverse transcriptase (Invitrogen) with 10 mM dithiothreitol, RNasin (Promega), and 0.5 mM dNTPs at 42° C. for 1 h. Reactions were diluted to a final volume of 100 μl and subjected to heat-inactivation at 98° C. for 10 min. Reactions (25 μl) contained 2.5 μl of cDNA, 12.5 μl of SYBR Green Master Mix (Applied Biosystems), and appropriate primers. Product accumulation was monitored by SYBR Green fluorescence. Control reactions lacking RT yielded little or no signals. The relative expression levels were determined from a standard curve of serial dilutions of cDNA samples from untreated control cells, and measurements were conducted under conditions of linearity.
Real time RT-PCR primers were designed using PRIMER EXPRESS 1.0 (PE Applied Biosystems) to amplify 50-150 bp amplicons and were based on GenBank Ensembl sequences.
On the technique in general: In qPCR the cycle at which signal appears reflects the starting amount.

Assay [8] concerns calreticulin in YSECs. The experiment in a line: Calreticulin 2D gel electrophoresis and Western blot. The following applies: 2 μM ionomycin, 1 h, supplement-free M200 medium. Format: cell-based, mouse. As for the experimental part:
[…] Cells were processed and proteins analyzed as described above in Example 2.
Cells were harvested, washed twice with ice-cold PBS, and lysed in lysis buffer containing 10 mM Tris (pH 7.4), 0.3% SDS, 100 μg/mL Ribonuclease A (Sigma), 200 μg/mL DNase I (Sigma), 20 μg/mL leupeptin (Sigma), 6 μg/mL E-64 (Sigma), 1 mM EDTA (Calbiochem), and 100 μg/mL benzamidine (Sigma). Cells were incubated on ice for 30 min, an equal volume of loading buffer containing 60 mM Tris (pH 6.8), 5% SDS, 10% glycerol was added, and samples were boiled for 5 min. 2D gel electrophoresis was conducted using pH 3.5-10 ampholines, and proteins were detected by Coomassie Blue staining. […]
The following antibodies were used for Western blots: Anti-phospho-FAK (Tyr-397) (Biosource, 44-624G); anti-FAK, anti-phospho-Akt (Ser 473), anti-Akt, anti-phospho-p44/42 MAP kinase (Thr 202/Tyr 204), anti-p44/42 MAP kinase antibodies (Cell Signaling Technology); anti-calreticulin (Upstate, 06-661); anti-α-tubulin (Calbiochem); anti Flt-1 (Santa Cruz Biotech, C-17); anti-Flk-1 (Cell Signaling Technologies, 2479). […] Extracts were resolved on SDS polyacrylamide gels, transferred to Immobilon P membranes (Millipore, Billerica, Mass.), and analyzed by Western blotting. Proteins were detected by chemiluminescence using ECL-Plus (Amersham Biosciences Piscataway, N.J.).

With `CCCCC[C@H](O)/C=C/[C@@H]1[C@@H](C/C=C\CCCC(=O)O)[C@H]2CO[C@@H]1C2` [U46619], the vascular network assembly entry in assay [1] (NK-B, U46619 (2 μM) or both, 2 h, 16 h on Matrigel) is recorded as “had little effect”; in assay [2], “had little effect”; in assay [5] (NK-B, U46619 (2 μM) or both, 1 h, 16 h on Matrigel), “had little effect”. Also, the cAMP entry in assay [3] was “decrease the amount of cAMP”. Further, the “Ca+2 oscillations” value in assay [4] was “decreasing the amount of Ca^2+ oscillations”.

As for `CC[C@H](NC(=O)c1c(C)c(-c2ccccc2)nc2ccccc12)c1ccccc1` [SB222200, (S)-3 methyl-2-phenyl-N-(1-phenylpropyl)-4-quinilinecarboxamide], in assay [6], the “microvessel density of CAM” value was “much higher”.

As for “FGF2: fibroblast growth factor-2 (bovine FGF2 from R & D systems; also called mouse FGF2/bFGF)”, the “rescue of Flt-1 and Flk-1 expression and cell signaling” value in assay [7] was “but not FGF2, rescues Flt-1 and Flk-1 expression and cell signaling”. In addition, the FGFR1 transcription entry in assay [7] (YSECs, 100 ng/ml FGF2 with or without NK-B) is reported as “increased”. In assay [5], the “rescue of tube formation in IBMX+NK-B treated cells” value was “but not bFGF Rescues the NK-B Effect”.

With `Cl.FC(F)(F)c1cc(CO[C@H]2CCCN[C@H]2c2ccccc2)cc(C(F)(F)F)c1` [L733060], the “microvessel density of CAM” value in assay [6] is “much higher”.

With VEGF, the “rescue of Flt-1 and Flk-1 expression and cell signaling” value in assay [7] is “rescues Flt-1 and Flk-1 expression and cell signaling”. The “rescue of tube formation in IBMX+NK-B treated cells” value in assay [5] was “can form capillary-like tubes but in a slower kinetics”.

Regarding `CC(C)Cn1c(=O)n(C)c(=O)c2[nH]cnc21` [IBMX, 3-Isobutyl-1-methylxanthine], the “vascular network assembly (capillary like tube formation)” value in assay [5] (250 μM IBMX, 10 μM forskolin, 100 μM NK-B, 20 h, 3 experiments) is “has little effect on vascular network assembly”.

In the case of `C[C@H](CCC(=O)O)C[C@H](C)C[C@H](C)C(=O)/C=C(\O)[C@H](C)C[C@H](C)C/C=C/[C@@H](C)[C@@H](O)[C@@H](C)[C@@H](O)C[C@@H]1CC[C@@](C)([C@H]2CC[C@@](C)([C@@H](C)O)O2)O1` [ionomycin], the calreticulin/alpha-tubulin ratio increase in assay [8] was around 2 fold.

B1: calreticulin: E. coli overexpressed and purified recombinant calreticulin, anti-angiogenic protein (protein, UniProt P27797 18-417, looked up)
Calreticulin: EPAVYFKEQFLDGDGWTSRWIESKHKSDFGKFVLSSGKFYGDEEKDKGLQTSQDARFYALSASFEPFSNKGQTLVVQFTVKHEQNIDCGGGYVKLFPNSLDQTDMHGDSEYNIMFGPDICGPGTKKVHVIFNYKGKNVLINKDIRCKDDEFTHLYTLIVRPDNTYEVKIDNSQVESGSLEDDWDFLPPKKIKDPDASKPEDWDERAKIDDPTDSKPEDWDKPEHIPDPDAKKPEDWDEEMDGEWEPPVIQNPEYKGEWKPRQIDNPDYKGTWIHPEIDNPEYSPDPSIYAYDNFGVLGLDLWQVKSGTIFDNFLITNDEAYAEEFGNETWGVTKAAEKQMKDKQDEEQRLKEEEEDKKRKEEEEAEDKEDDEDKDEDEEDEEDKEEDEEEDVPGQAKDEL
With B1, the vascular network assembly entry in assay [1] (calreticulin 13 μg/ml, vasostatin 5 μg/ml, 1 h) is “inhibit YSEC and HUVEC vascular network assembly”. The “Flt-1 and Flk-1 transcription” value in assay [7] (YSECs, forskolin (10 μM)/IBMX, calreticulin (13 μg/ml), vasostatin (5 μg/ml), 1, 2 or 5 h on Matrigel) is “failed to affect Flt-1 and Flk-1 transcription”.
